In patent publication US20230303549A1, “SUBSTITUTED HETEROARYLOXYPYRIDINES, THE SALTS THEREOF AND THEIR USE AS HERBICIDAL AGENTS” (Bayer Aktiengesellschaft, priority 2020, published 2023):

Key:
Assay type in all cases: in vivo
[1] = system: Digitaria sanguinalis (DIGSA); assay: Pre-emergence herbicide efficacy at 80 g/ha, greenhouse pot test; conditions: visual scoring vs untreated control after about 3 weeks
Summary of the method: (§1)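 Seeds were sown in pots and covered with soil, then the compound (WP or EC formulation) was sprayed onto the soil surface as an aqueous suspension or emulsion with 0.5% additive. Pots were kept in a greenhouse, and after about 3 weeks activity was scored visually versus untreated controls (100% = plants dead, 0% = like control).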

[2] = system: Matricaria inodora (MATIN); assay: as above; conditions: visual scoring vs untreated control after about 3 weeks
Summary of the method: as §1

Ipomoea purpurea (PHBPU) = assay: as above; conditions: visual scoring vs untreated control after about 3 weeks
Summary of the method: as §1

[3] = system: Alopecurus myosuroides (ALOMY); assay: as above; conditions: visual scoring vs untreated control after about 3 weeks
Summary of the method: as §1

[4] = system: Abutilon theophrasti (ABUTH); assay: as above; conditions: visual scoring vs untreated control after about 3 weeks
Summary of the method: as §1

Avena fatua (AVEFA) = assay: as above; conditions: visual scoring vs untreated control after about 3 weeks
Summary of the method: as §1

Veronica persica (VERPE) [5] = assay: as above; conditions: visual scoring vs untreated control after about 3 weeks
Summary of the method: as §1

Viola tricolor (VIOTR) [6] = assay: as above; conditions: visual scoring vs untreated control after about 3 weeks
Summary of the method: as §1

[7] = system: Polygonum convolvulus (POLCO); assay: as above; conditions: visual scoring vs untreated control after about 3 weeks
Summary of the method: as §1

Setaria viridis (SETVI) [8] = assay: as above; conditions: visual scoring vs untreated control after about 3 weeks
Summary of the method: as §1

[9] = system: Amaranthus retroflexus (AMARE); assay: as above; conditions: visual scoring vs untreated control after about 3 weeks
Summary of the method: as §1

[10] = system: Alopecurus myosuroides (ALOMY); assay: Post-emergence herbicidal efficacy at 80 g/ha, greenhouse pot test; conditions: visual rating vs untreated control after about 3 weeks
Summary of the method: (§2)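 Visual rating of activity versus untreated plants after about 3 greenhouse weeks, 0% meaning control-like and 100% meaning dead. Plants in sandy loam were sprayed at one-leaf stage (2–3 weeks post-sowing) with WP/EC compound suspensions or emulsions, 0.5% additive, 600 l/ha water.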

Veronica persica (VERPE) [11] = assay: as above; conditions: visual rating vs untreated control after about 3 weeks
Summary of the method: as §2

Viola tricolor (VIOTR) [12] = assay: as above; conditions: visual rating vs untreated control after about 3 weeks
Summary of the method: as §2

[13] = system: Polygonum convolvulus (POLCO); assay: as above; conditions: visual rating vs untreated control after about 3 weeks
Summary of the method: as §2

[14] = system: Amaranthus retroflexus (AMARE); assay: as above; conditions: visual rating vs untreated control after about 3 weeks
Summary of the method: as §2

[15] = system: Matricaria inodora (MATIN); assay: Pre-emergence herbicide efficacy at 320 g/ha, greenhouse pot test; conditions: visual scoring vs untreated control after about 3 weeks
Summary of the method: (§3)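 Pre-emergence, greenhouse: sandy loam pots, seeds covered with soil; compound as WP/EC in water + 0.5% additive, 600 L/ha spray volume onto covering soil. Readout: visual % effect at ~3 wk vs untreated (100% = dead, 0% = as control).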

Bassia scoparia (KCHSC) [16] = assay: as above; conditions: dosage 1280 g/ha in Table C6, visual scoring after about 3 weeks
Summary of the method: as §3

[17] = system: Echinochloa crus-galli (ECHCG); assay: as above; conditions: visual scoring vs untreated control after about 3 weeks
Summary of the method: as §3

[18] = system: Abutilon theophrasti (ABUTH); assay: as above; conditions: visual scoring vs untreated control after about 3 weeks
Summary of the method: as §3

Veronica persica (VERPE) [19] = assay: as above; conditions: visual scoring vs untreated control after about 3 weeks
Summary of the method: as §3

Stellaria media (STEME) [20] = assay: as above; conditions: visual scoring vs untreated control after about 3 weeks
Summary of the method: as §3

Poa annua (POAAN) [21] = assay: as above; conditions: visual scoring vs untreated control after about 3 weeks
Summary of the method: as §3

Setaria viridis (SETVI) [22] = assay: as above; conditions: visual scoring vs untreated control after about 3 weeks
Summary of the method: as §3

[23] = system: Amaranthus retroflexus (AMARE); assay: as above; conditions: visual scoring vs untreated control after about 3 weeks
Summary of the method: as §3

[24] = system: Echinochloa crus-galli (ECHCG); assay: Post-emergence herbicidal efficacy at 320 g/ha, greenhouse pot test; conditions: visual rating vs untreated control after about 3 weeks
Summary of the method: (§4)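 Visual percent activity (0% = like control, 100% = plants dead) is scored about 3 weeks after treatment, relative to untreated plants. Compounds go on as wettable powder or emulsion concentrate with 0.5% additive at 600 liters per hectare water, at the one-leaf stage.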

[25] = system: Alopecurus myosuroides (ALOMY); assay: as above; conditions: visual rating vs untreated control after about 3 weeks
Summary of the method: as §4

[26] = system: Abutilon theophrasti (ABUTH); assay: as above; conditions: visual rating vs untreated control after about 3 weeks
Summary of the method: as §4

Veronica persica (VERPE) [27] = assay: as above; conditions: 320 g/ha, visual rating vs untreated control after about 3 weeks
Summary of the method: as §4

Stellaria media (STEME) [28] = assay: as above; conditions: visual rating vs untreated control after about 3 weeks
Summary of the method: as §4

Poa annua (POAAN) [29] = assay: as above; conditions: visual rating vs untreated control after about 3 weeks
Summary of the method: as §4

[30] = system: Amaranthus retroflexus (AMARE); assay: as above; conditions: visual rating vs untreated control after about 3 weeks
Summary of the method: as §4

[31] = system: Alopecurus myosuroides (ALOMY); assay: Pre-emergence herbicide efficacy at 320 g/ha, greenhouse pot test; conditions: visual scoring vs untreated control after about 3 weeks
Summary of the method: as §3

Bassia scoparia (KCHSC) [32] = assay: Post-emergence herbicidal efficacy at 320 g/ha, greenhouse pot test; conditions: visual rating vs untreated control after about 3 weeks
Summary of the method: as §4

Lolium rigidum (LOLRI) = assay: as above; conditions: visual rating vs untreated control after about 3 weeks
Summary of the method: as §4

Setaria viridis (SETVI) [33] = assay: as above; conditions: visual rating vs untreated control after about 3 weeks
Summary of the method: as §4

[34] = system: Digitaria sanguinalis (DIGSA); assay: Pre-emergence herbicide efficacy at 320 g/ha, greenhouse pot test; conditions: visual scoring vs untreated control after about 3 weeks
Summary of the method: as §3

Compound | Pre-emergence efficacy against Matricaria inodora (MATIN) [2] | Pre-emergence efficacy against Alopecurus myosuroides (ALOMY) [3] | Pre-emergence efficacy against Abutilon theophrasti (ABUTH) [4] | Pre-emergence efficacy against Veronica persica (VERPE) (Veronica persica (VERPE) [5]) | Pre-emergence efficacy against Viola tricolor (VIOTR) (Viola tricolor (VIOTR) [6]) | Pre-emergence efficacy against Polygonum convolvulus (POLCO) [7] | Pre-emergence efficacy against Setaria viridis (SETVI) (Setaria viridis (SETVI) [8]) | Pre-emergence efficacy against Amaranthus retroflexus (AMARE) [9] | Post-emergence efficacy against Viola tricolor (VIOTR) (Viola tricolor (VIOTR) [12]) | Post-emergence efficacy against Amaranthus retroflexus (AMARE) [14] | Pre-emergence efficacy against Matricaria inodora (MATIN) [15] | Pre-emergence efficacy against Echinochloa crus-galli (ECHCG) [17] | Pre-emergence efficacy against Abutilon theophrasti (ABUTH) [18] | Pre-emergence efficacy against Veronica persica (VERPE) (Veronica persica (VERPE) [19]) | Pre-emergence efficacy against Stellaria media (STEME) (Stellaria media (STEME) [20]) | Pre-emergence efficacy against Poa annua (POAAN) (Poa annua (POAAN) [21]) | Pre-emergence efficacy against Setaria viridis (SETVI) (Setaria viridis (SETVI) [22]) | Pre-emergence efficacy against Amaranthus retroflexus (AMARE) [23] | Post-emergence efficacy against Veronica persica (VERPE) (Veronica persica (VERPE) [27]) | Post-emergence action against Stellaria media (STEME) (Stellaria media (STEME) [28]) | other results
Cc1cc(C)c(-c2cc(C(F)F)no2)c(Oc2ncc(F)cn2)n1 [Example I-4] | 90% | 90% | 100% | 100% | 100% | 90% | 100% | 100% | 80% | 100% |  |  |  |  |  |  |  |  |  |  | Pre-emergence efficacy against Digitaria sanguinalis (DIGSA) [1]: 100%; Pre-emergence efficacy against Ipomoea purpurea (PHBPU) (Ipomoea purpurea (PHBPU)): 80%; Pre-emergence efficacy against Avena fatua (AVEFA) (Avena fatua (AVEFA)): 80%; Post-emergence efficacy against Alopecurus myosuroides (ALOMY) [10]: 90%; Post-emergence efficacy against Veronica persica (VERPE) (Veronica persica (VERPE) [11]): 90%; Post-emergence efficacy against Polygonum convolvulus (POLCO) [13]: 90%
Cc1cc(C)c(-c2cc(C(F)F)no2)c(Oc2ccc(Cl)cn2)n1 [Example I-43] | 90% |  |  | 90% | 80% |  | 90% | 100% | 80% |  | 90% | 90% | 100% | 100% | 100% | 100% | 100% | 100% | 100% | 100% | Pre-emergence efficacy against Bassia scoparia (KCHSC) (Bassia scoparia (KCHSC) [16]): 100%; Post-emergence efficacy against Echinochloa crus-galli (ECHCG) [24]: 90%; Post-emergence efficacy against Alopecurus myosuroides (ALOMY) [25]: 90%; Post-emergence efficacy against Abutilon theophrasti (ABUTH) [26]: 90%; Post-emergence efficacy against Poa annua (POAAN) (Poa annua (POAAN) [29]): 90%; Post-emergence efficacy against Amaranthus retroflexus (AMARE) [30]: 100%
Cc1cc(C)c(-c2cc(C(F)F)no2)c(Oc2ncc(Br)cn2)n1 [Example I-41] | 80% | 80% | 80% | 80% | 80% | 90% | 80% | 100% |  | 90% | 100% | 90% | 100% | 100% | 100% | 100% | 100% | 100% | 100% | 100% | Post-emergence efficacy against Veronica persica (VERPE) (Veronica persica (VERPE) [11]): 90%; Post-emergence efficacy against Polygonum convolvulus (POLCO) [13]: 80%; Pre-emergence efficacy against Bassia scoparia (KCHSC) (Bassia scoparia (KCHSC) [16]): 100%; Pre-emergence efficacy against Alopecurus myosuroides (ALOMY) [31]: 90%; Post-emergence efficacy against Bassia scoparia (KCHSC) (Bassia scoparia (KCHSC) [32]): 100%; Post-emergence efficacy against Abutilon theophrasti (ABUTH) [26]: 90%; Post-emergence efficacy against Lolium rigidum (LOLRI) (Lolium rigidum (LOLRI)): 90%; Post-emergence efficacy against Poa annua (POAAN) (Poa annua (POAAN) [29]): 100%; Post-emergence efficacy against Setaria viridis (SETVI) (Setaria viridis (SETVI) [33]): 90%; Post-emergence efficacy against Amaranthus retroflexus (AMARE) [30]: 100%
Cc1cc(C)c(-c2cc(C(F)(F)F)on2)c(Oc2ncc(Cl)cn2)n1 [Example I-7] | 90% | 100% | 100% | 90% | 100% | 90% | 100% | 100% | 90% | 80% | 100% | 100% | 100% | 100% | 100% | 100% | 100% | 100% | 100% | 100% | Post-emergence efficacy against Alopecurus myosuroides (ALOMY) [10]: 90%; Pre-emergence efficacy against Digitaria sanguinalis (DIGSA) [34]: 100%; Pre-emergence efficacy against Alopecurus myosuroides (ALOMY) [31]: 90%; Post-emergence efficacy against Echinochloa crus-galli (ECHCG) [24]: 90%; Post-emergence efficacy against Alopecurus myosuroides (ALOMY) [25]: 90%; Post-emergence efficacy against Amaranthus retroflexus (AMARE) [30]: 90%
